Reference: patent US8648074B2, “Substituted octahydropyrrolo[1,2-a]pyrazine sulfonamides as calcium channel blockers” (AbbVie Inc., priority 2011, dated 2014)

Tested on: Chronic constriction injury (CCl), a model of neuropathic pain
Assay: In vivo assessment of analgesic effect against neuropathic pain (Bennett model, chronic constriction injury; tactile allodynia by von Frey filaments)
Conditions: Rattus norvegicus, po, 1 h; male Sprague Dawley rats, CCI; 10 mg/kg orally; mechanical allodynia 60 minutes following administration; percentage of maximum possible effect from log g PWT; read-out: % MPE
Procedure: Animals were prepared for testing, by use of a surgical procedure that induces neuropathic pain in one paw. IACUC guidelines for rodent survival surgery were followed. All surgical procedures were conducted on a clean, uncluttered surgical station. The area was wiped with a 70% ethanol solution before and after use. All instruments were sterilized by either autoclave or chemical sterilant (such as 2% glutaraldehyde>10 hours). Surgeons wore sterile gloves (for the initial procedure), clean lab coat or scrubs, hairnet or cap, and a half-mask respirator (when not working under a hood). Surgeons thoroughly washed their hands prior to donning sterile gloves. Gloves were disinfected in-between animals by cleansing with povidone iodine, chlorhexidine or 70% alcohol for at least 30 seconds. If multiple surgeries were performed, the instruments were cleaned and sterilized between procedures with hot glass beads (>10 seconds). To prevent thermal or chemical burns, the instruments were cooled by rinsing in sterile saline before use. Male, Sprague Dawley® rats, 175-200 g were used for surgeries. To minimize post-operative dehydration/maintain blood volume during the surgery, warmed sterile saline or Lactate Ringers solution at 10-15 mL/kg was administered subcutaneously immediately before or after surgery. This facilitated better renal function and presumably anesthesia product excretion post surgery. For all surgical procedures, anesthesia was induced with 4-5% isoflurane. Anesthesia was maintained during surgery with 1-3% isoflurane. Following induction, the surgical site was carefully shaved and the exposed area was aseptically prepared with povidone-iodine scrub solution and 70% ethanol 2-3 times. Chronic constriction injury (CCl), a model of neuropathic pain, was produced by following the method of Bennett and Xie (Bennett, G, et al. Pain, 1988, 33, 87-107). After site sterilization and anesthetic procedures outline above were completed, a 1.5 cm incision was made at the mid-thigh level to expose the biceps femoris and gluteous superficialis (right side), which were then separated by blunt dissection. The common sciatic nerve was exposed, isolated, and loosely ligated by four 5-0 chromic gut ligatures with <1 mm spacing between each. The surgical site was closed in layers—muscle was closed with 6.0 absorbable sutures, and the skin closed with wound clips. Animals were allowed to recover on a warming plate and were returned to their home cages when fully ambulatory. Animals were not be used for testing until at least 10 days following surgery. To measure mechanical sensitivity, tactile allodynia was measured using calibrated von Frey filaments (Stoelting, Wood Dale, Ill.) as described by Chaplan et al. (Chaplan S., et al. J of Neuroscience Methods 1994, 53, 55-63). Filament strengths used were: 0.4, 0.6, 1.0, 2, 4, 6, 8, and 15 g. Rats were placed into inverted individual plastic containers (20×12.5×20 cm) on top of a suspended wire mesh grid, and acclimated to the test chambers for at least 20 minutes. Filaments were applied perpendicular to the mid-plantar paw surface with enough force to cause slight buckling and held in place for 6-8 seconds. Positive responses included an abrupt withdrawal of the paw from the stimulus or flinching behavior immediately following removal of the stimulus. The maximum force applied was 15 g. The 50% paw withdrawal threshold (PWT) was calculated in grams (g) using the up-down method of Dixon (Dixon W. Ann Rev Pharmacol Toxicol 1980, 20, 441-462). […] All compounds were orally administered in at a dose of 10 mg/kg in 10% dimethyl sulfoxide/polyethylene glycol at a volume of 2.0 mL/kg, and mechanical allodynia was determined 60 minutes following compound administration. […]

O=S(=O)(c1cccc(C(F)(F)F)c1)N1CCN2C[C@H](Oc3cnc(C4CC4)cn3)C[C@H]2C1 [Example 21, (7R,8aS)-7-[(5-cyclopropylpyrazin-2-yl)oxy]-2-{[3-(trifluoromethyl)phenyl]-sulfonyl}octahydropyrrolo[1,2-a]pyrazine]
inhibition in vivo at 10 mg/kg: 43%

O=S(=O)(c1ccc(C(F)(F)F)cc1)N1CCN2C[C@H](Oc3cnc(C4CC4)cn3)C[C@H]2C1 [Example 25, (7R,8aS)-7-[(5-cyclopropylpyrazin-2-yl)oxy]-2-{[4-(trifluoromethyl)-phenyl]sulfonyl}octahydropyrrolo[1,2-a]pyrazine]
inhibition in vivo at 10 mg/kg: 42%

O=S(=O)(c1cccc(C(F)(F)F)c1)N1CCN2C[C@H](Oc3ccc(C4CC4)nn3)C[C@H]2C1 [Example 44, (7R,8aS)-7-[(6-cyclopropylpyridazin-3-yl)oxy]-2-{[3-(trifluoromethyl)-phenyl]sulfonyl}octahydropyrrolo[1,2-a]pyrazine]
inhibition in vivo at 10 mg/kg: 40%

O=S(=O)(c1cccc(C(F)(F)F)c1)N1CCN2C[C@@H](Oc3cnc(C4CC4)cn3)C[C@H]2C1 [Example 49, (7S,8aS)-7-[(5-cyclopropylpyrazin-2-yl)oxy]-2-{[3-(trifluoromethyl)-phenyl]sulfonyl}octahydropyrrolo[1,2-a]pyrazine]
inhibition in vivo at 10 mg/kg: 19%

O=S(=O)(c1ccc(C(F)(F)F)cc1)N1CCN2C[C@@H](Oc3cnc(C4CC4)cn3)C[C@H]2C1 [Example 50, (7S,8aS)-7-[(5-cyclopropylpyrazin-2-yl)oxy]-2-{[4-(trifluoromethyl)phenyl]-sulfonyl}octahydropyrrolo[1,2-a]pyrazine]
inhibition in vivo at 10 mg/kg: 25%

O=S(=O)(c1cc(F)cc(C(F)(F)F)c1)N1CCN2C[C@H](Oc3cnc(C4CC4)cn3)C[C@H]2C1 [Example 51, (7R,8aS)-7-[(5-cyclopropylpyrazin-2-yl)oxy]-2-{[3-fluoro-5-(trifluoromethyl)phenyl]sulfonyl}octahydropyrrolo[1,2-a]pyrazine]
inhibition in vivo at 10 mg/kg: 32%

O=S(=O)(c1ccc(F)c(C(F)(F)F)c1)N1CCN2C[C@H](Oc3cnc(C4CC4)cn3)C[C@H]2C1 [Example 52, (7R,8aS)-7-[(5-cyclopropylpyrazin-2-yl)oxy]-2-{[4-fluoro-3-(trifluoromethyl)phenyl]sulfonyl}octahydropyrrolo[1,2-a]pyrazine]
inhibition in vivo at 10 mg/kg: 38%

O=S(=O)(c1ccc(C(F)(F)F)cc1)N1CCN2C[C@@H](Oc3cnc(C4CC4)cn3)C[C@@H]2C1 [Example 54, (7S,8aR)-7-[(5-cyclopropylpyrazin-2-yl)oxy]-2-{[4-(trifluoromethyl)phenyl]-sulfonyl}octahydropyrrolo[1,2-a]pyrazine]
inhibition in vivo at 10 mg/kg: 34%

O=S(=O)(c1ccc(F)cc1F)N1CCN2C[C@H](Oc3cnc(C4CC4)cn3)C[C@H]2C1 [Example 62, (7R,8aS)-7-[(5-cyclopropylpyrazin-2-yl)oxy]-2-[(2,4-difluorophenyl)-sulfonyl]octahydropyrrolo[1,2-a]pyrazine]
inhibition in vivo at 10 mg/kg: 29%

N#Cc1cc(C(F)(F)F)cc(S(=O)(=O)N2CCN3C[C@H](Oc4cnc(C5CC5)cn4)C[C@H]3C2)c1 [Example 64, 3-{[(7R,8aS)-7-[(5-cyclopropylpyrazin-2-yl)oxy]hexahydropyrrolo[1,2-a]-pyrazin-2(1H)-yl]sulfonyl}-5-(trifluoromethyl)benzonitrile]
inhibition in vivo at 10 mg/kg: 37%

O=S(=O)(c1ccc(C(F)(F)F)cn1)N1CCN2C[C@H](Oc3cnc(C4CC4)cn3)C[C@H]2C1 [Example 67, (7R,8aS)-7-[(5-cyclopropylpyrazin-2-yl)oxy]-2-{[5-(trifluoromethyl)pyridin-2-yl]sulfonyl}octahydropyrrolo[1,2-a]pyrazine]
inhibition in vivo at 10 mg/kg: 5%

N#Cc1ccc(O[C@@H]2C[C@H]3CN(S(=O)(=O)c4cccc(C(F)(F)F)c4)CCN3C2)cn1 [Example 86, 5-{[(7R,8aS)-2-{[3-(trifluoromethyl)phenyl]sulfonyl}octahydropyrrolo[1,2-a]pyrazin-7-yl]oxy}pyridine-2-carbonitrile]
inhibition in vivo at 10 mg/kg: 0%
